ChEMBL document CHEMBL1201862, “PubChem BioAssay data set” (2004)
Values belong to the compound of their own block, whether it stands above or below them. The source made the active and inactive calls.

How the values were obtained:
[1] = target: SUMO-activating enzyme (Homo sapiens, UniProt Q9UBT2); experiment: SUMOylation inhibitor hit validation, confirmation, SUMOylation inhibitor project, biochemical, AlphaScreen (AID 2018); assay type: functional
[2] = enhancers of respiration in Yfh1-depleted yeast, dose response, Friedreich's ataxia, plus single-dose screen (AID 1465); assay type: functional;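 further: yeast depleted of Yfh1p frataxin homolog grown on glycerol needing respiration; WST-1 tetrazolium dye reduction as measure of cellular dehydrogenase metabolic activity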
[3] = test system: A-375; experiment: MITF: Counter assay: A375 proliferation Measured in Cell-Based System Using Plate Reader - 2084-03_Inhibitor_Dose_DryPowder_Activity. [Related pubchem assays (depositor defined):AID488944]; assay type: functional; conditions: Homo sapiens
[4] = inhibitors of firefly luciferase expression or activity, dose response, H4 neuroglioma cells, luminescence (AID 1990); assay type: functional, cell-based
[5] = inhibitors of SNCA 5'UTR-driven reporter translation, confirmation, H4 neuroglioma cells, luminescence (AID 1988); assay type: functional, cell-based
[6] = target: T1, Mannose-6-phosphate isomerase (Homo sapiens, UniProt P34949); experiment: inhibitors of human PMI, primary screen, biochemical, fluorescence intensity, coupled assay (AID 1209)
T1 sequence (P34949 whole entry): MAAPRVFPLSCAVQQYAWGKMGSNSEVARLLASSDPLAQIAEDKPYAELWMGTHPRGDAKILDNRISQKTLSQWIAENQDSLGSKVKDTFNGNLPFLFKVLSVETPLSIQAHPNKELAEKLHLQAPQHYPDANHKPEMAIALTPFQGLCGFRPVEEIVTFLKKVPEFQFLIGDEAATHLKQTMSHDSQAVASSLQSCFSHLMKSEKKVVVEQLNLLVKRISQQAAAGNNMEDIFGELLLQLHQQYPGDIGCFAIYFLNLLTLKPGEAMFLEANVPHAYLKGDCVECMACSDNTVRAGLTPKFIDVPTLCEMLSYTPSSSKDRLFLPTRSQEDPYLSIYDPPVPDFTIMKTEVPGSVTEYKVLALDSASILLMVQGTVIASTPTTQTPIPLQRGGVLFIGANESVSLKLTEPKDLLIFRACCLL

[7] = target: Mu-type opioid receptor (Homo sapiens, UniProt P35372); experiment: HTS Image-Based Screen for Agonists of the MOR Receptor. [Related pubchem assays (depositor defined):AID1777, AID1785, AID1786, AID2133]; assay type: functional;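 further: imaging of beta-arrestin GFP recruitment into spots after receptor activation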
Mu-type opioid receptor, sequence (P35372 whole entry): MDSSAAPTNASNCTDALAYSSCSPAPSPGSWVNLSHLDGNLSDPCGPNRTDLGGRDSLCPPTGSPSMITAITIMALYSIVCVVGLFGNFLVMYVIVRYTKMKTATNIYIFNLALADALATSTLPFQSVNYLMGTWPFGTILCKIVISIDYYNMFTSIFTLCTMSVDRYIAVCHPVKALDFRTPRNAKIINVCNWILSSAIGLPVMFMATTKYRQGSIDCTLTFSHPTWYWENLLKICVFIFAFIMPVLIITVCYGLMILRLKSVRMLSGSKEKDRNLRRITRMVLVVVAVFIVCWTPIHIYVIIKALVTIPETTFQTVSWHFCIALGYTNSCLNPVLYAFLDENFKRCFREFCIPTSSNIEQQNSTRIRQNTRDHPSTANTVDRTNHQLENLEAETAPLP

[8] = target: Paired box protein Pax-8 (Homo sapiens, UniProt Q06710); experiment: inhibitors of PAX8-driven TPO luciferase reporter, dose response, RMG-I cells, cherry-pick (AID 687027); assay type: functional, cell-based;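 further: luciferase reporter driven by Pax8 target thyroperoxidase promoter measured by SteadyGlo luminescence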
Paired box protein Pax-8, sequence (Q06710 whole entry, the tested form may be a part): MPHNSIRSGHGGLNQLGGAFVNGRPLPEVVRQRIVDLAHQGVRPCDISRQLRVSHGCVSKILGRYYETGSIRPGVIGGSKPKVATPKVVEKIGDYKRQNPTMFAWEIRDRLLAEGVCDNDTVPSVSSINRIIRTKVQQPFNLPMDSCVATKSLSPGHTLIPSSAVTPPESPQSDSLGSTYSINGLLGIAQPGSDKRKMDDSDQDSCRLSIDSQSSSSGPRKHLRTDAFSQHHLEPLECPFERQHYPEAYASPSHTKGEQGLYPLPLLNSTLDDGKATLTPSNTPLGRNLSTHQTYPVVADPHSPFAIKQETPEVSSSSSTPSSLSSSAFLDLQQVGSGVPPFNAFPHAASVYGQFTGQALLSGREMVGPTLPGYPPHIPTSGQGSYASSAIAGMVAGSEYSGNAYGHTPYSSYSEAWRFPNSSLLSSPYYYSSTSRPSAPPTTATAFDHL

[9] = test system: CHO; experiment: cytotoxicity in TLR9-MyD88 CHO cells, dose response, cytotoxicity control for TLR9-MyD88 binding inhibitor project, cell-based, luminescence (AID 588339); assay type: functional, hamster; conditions: Cricetulus griseus;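 further: CHO cells stably coexpressing TLR9 and MyD88 fusions from primary screen; compound exposure lasted 48 hours before viability readout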
[10] = HepG2 cell cytotoxicity, dose response, cytotoxicity control for Shn3 inhibitor project, CellTiter-Glo, cherry-picked (AID 624134); assay type: functional, cell-based
[11] = target: Beta Lactamase (Pseudomonas aeruginosa, UniProt Q932Y6); experiment: beta-lactamase reporter inhibitor potency, dose response, artefact control for TLR9-MyD88 binding inhibitor project, BLA reporter cells, FRET fluorescence (AID 588341); assay type: cell-based;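 further: cell based assay in CHO-K1 cells stably expressing beta-lactamase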
Beta Lactamase, sequence (Q932Y6 whole entry): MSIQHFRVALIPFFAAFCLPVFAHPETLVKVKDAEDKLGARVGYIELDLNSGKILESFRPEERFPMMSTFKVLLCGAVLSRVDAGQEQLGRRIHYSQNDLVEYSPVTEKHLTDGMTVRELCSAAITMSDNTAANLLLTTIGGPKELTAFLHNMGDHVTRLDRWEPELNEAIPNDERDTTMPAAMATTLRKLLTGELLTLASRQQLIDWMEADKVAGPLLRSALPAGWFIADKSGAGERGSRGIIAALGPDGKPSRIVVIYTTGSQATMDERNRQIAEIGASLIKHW

[12] = target: Beta-galactosidase (Escherichia coli, UniProt Q8VNN2); assay type: functional
[13] = ZM109 Env clade C HIV-1 fusion inhibitors, dose response, HeLa effector, CEM target cells, luciferase, cherry-pick (AID 652058); assay type: functional, cell-based
[14] = off-target signal loss in HeLa-CEM21 co-culture – HeLa F-luc CTL cells, cherry-picked, counter-screen for HIV-1 Env fusion inhibitor project, dose response (AID 652040); assay type: functional, cell-based;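 further: potency for signal decrease marking cytotoxic or nonspecific inhibition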
[15] = target: Perilipin-1/ABHD5 (Homo sapiens, UniProt O60240+Q8WTS1); experiment: Luminescence-based biochemical high throughput dose response assay for inhibitors of the interaction of the lipase co-activator protein, abhydrolase domain containing 5 (ABHD5) with perilipin-1 (PLIN1) (2K validation set). [Related pubchem assays (depositor defined):AID493027, AID493057]
[16] = target: T2, Sphingosine 1-phosphate receptor 4 (Homo sapiens, UniProt O95977); experiment: Fluorescence dose response cell-based high throughput screening assay for antagonists of the Sphingosine 1-Phosphate Receptor 4 (S1P4). [Related pubchem assays: 1524 (Confirmation in triplicates.), 1510 (Primary screen.)]; assay type: functional
T2 sequence (O95977 whole entry): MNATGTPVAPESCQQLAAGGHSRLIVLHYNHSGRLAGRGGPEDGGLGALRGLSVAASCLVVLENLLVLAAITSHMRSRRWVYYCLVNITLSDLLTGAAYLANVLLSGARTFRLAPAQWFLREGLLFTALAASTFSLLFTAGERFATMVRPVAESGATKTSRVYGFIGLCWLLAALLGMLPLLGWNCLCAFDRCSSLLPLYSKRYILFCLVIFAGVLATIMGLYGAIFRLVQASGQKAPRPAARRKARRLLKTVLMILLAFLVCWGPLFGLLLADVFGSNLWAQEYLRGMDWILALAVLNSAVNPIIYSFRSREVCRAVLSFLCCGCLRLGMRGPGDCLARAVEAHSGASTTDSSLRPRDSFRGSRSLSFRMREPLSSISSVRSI

[17] = target: Protein-arginine deiminase type-4 (Homo sapiens, UniProt Q9UM07); experiment: human PAD4 inhibitor potency, dose response, biochemical, fluorescence readout (AID 492970)
Protein-arginine deiminase type-4, sequence (Q9UM07 whole entry, the tested form may be a part): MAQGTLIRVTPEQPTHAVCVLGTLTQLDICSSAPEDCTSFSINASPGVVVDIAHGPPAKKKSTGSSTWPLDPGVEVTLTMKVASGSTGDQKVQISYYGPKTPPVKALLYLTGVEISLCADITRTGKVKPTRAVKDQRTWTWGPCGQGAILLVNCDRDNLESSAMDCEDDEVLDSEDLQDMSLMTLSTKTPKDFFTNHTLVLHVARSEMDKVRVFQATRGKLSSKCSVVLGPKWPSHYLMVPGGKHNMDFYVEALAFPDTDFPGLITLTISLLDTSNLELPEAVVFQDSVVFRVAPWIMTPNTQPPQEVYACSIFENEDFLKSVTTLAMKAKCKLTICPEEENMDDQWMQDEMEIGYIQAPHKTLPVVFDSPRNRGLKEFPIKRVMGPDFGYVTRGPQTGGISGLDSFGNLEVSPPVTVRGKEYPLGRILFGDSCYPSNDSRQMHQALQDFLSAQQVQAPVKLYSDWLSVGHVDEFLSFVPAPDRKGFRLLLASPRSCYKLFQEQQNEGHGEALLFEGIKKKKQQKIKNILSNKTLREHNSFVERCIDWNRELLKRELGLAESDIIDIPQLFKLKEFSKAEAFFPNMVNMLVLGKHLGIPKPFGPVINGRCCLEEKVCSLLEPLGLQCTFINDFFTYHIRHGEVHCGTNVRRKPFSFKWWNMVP

[18] = target: 1-acylglycerol-3-phosphate O-acyltransferase ABHD5/Perilipin-5 (Homo sapiens, UniProt Q00G26+Q8WTS1); experiment: Luminescence-based biochemical high throughput dose response assay for inhibitors of the interaction of the lipase co-activator protein, abhydrolase domain containing 5 (ABHD5) with perilipin-5 (MLDP; PLIN5) (2K validation set). [Related pubchem assays (depositor defined):AID493035, AID493241]
1-acylglycerol-3-phosphate O-acyltransferase ABHD5/Perilipin-5, sequence (Q00G26 whole entry, the tested form may be a part): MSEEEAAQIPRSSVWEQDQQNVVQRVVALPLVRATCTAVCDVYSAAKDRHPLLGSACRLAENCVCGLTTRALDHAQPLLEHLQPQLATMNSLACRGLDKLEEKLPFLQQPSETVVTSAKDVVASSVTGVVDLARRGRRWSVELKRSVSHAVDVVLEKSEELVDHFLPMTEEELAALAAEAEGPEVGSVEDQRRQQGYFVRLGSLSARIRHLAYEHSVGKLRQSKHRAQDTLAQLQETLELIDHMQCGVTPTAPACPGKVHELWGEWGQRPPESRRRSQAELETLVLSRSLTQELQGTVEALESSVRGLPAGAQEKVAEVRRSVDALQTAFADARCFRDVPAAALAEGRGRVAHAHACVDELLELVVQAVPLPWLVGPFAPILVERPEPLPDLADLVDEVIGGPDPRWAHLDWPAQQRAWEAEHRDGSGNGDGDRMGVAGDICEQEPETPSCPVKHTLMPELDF
1-acylglycerol-3-phosphate O-acyltransferase ABHD5/Perilipin-5, sequence (Q8WTS1 whole entry, the tested form may be a part): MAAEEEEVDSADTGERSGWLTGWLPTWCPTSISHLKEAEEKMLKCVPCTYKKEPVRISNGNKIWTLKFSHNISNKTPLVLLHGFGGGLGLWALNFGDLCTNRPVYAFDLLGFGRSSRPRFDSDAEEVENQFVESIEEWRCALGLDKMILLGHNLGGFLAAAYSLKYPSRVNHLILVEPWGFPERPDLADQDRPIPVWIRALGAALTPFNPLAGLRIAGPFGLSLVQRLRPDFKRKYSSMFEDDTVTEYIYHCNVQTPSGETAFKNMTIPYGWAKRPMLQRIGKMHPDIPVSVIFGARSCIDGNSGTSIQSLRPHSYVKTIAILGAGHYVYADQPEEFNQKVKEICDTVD

[19] = CEM21 lymphoblast cell cytotoxicity, dose response, cytotoxicity control for viral fusion inhibitor project, CellTiter-Glo luminescence, cherry-picked (AID 652042); assay type: functional, cell-based;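 further: potency for signal decrease meaning cytotoxicity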
[20] = target: 1-phosphatidylinositol 4,5-bisphosphate phosphodiesterase gamma-1 (Homo sapiens, UniProt P19174); experiment: Counterscreen for inhibitors of phospholipase C isozymes (PLC-B3): Fluorescence-based biochemical high throughput dose response assay to identify inhibitors of phospholipase C isozymes (PLC-gamma1).
1-phosphatidylinositol 4,5-bisphosphate phosphodiesterase gamma-1, sequence (P19174 whole entry): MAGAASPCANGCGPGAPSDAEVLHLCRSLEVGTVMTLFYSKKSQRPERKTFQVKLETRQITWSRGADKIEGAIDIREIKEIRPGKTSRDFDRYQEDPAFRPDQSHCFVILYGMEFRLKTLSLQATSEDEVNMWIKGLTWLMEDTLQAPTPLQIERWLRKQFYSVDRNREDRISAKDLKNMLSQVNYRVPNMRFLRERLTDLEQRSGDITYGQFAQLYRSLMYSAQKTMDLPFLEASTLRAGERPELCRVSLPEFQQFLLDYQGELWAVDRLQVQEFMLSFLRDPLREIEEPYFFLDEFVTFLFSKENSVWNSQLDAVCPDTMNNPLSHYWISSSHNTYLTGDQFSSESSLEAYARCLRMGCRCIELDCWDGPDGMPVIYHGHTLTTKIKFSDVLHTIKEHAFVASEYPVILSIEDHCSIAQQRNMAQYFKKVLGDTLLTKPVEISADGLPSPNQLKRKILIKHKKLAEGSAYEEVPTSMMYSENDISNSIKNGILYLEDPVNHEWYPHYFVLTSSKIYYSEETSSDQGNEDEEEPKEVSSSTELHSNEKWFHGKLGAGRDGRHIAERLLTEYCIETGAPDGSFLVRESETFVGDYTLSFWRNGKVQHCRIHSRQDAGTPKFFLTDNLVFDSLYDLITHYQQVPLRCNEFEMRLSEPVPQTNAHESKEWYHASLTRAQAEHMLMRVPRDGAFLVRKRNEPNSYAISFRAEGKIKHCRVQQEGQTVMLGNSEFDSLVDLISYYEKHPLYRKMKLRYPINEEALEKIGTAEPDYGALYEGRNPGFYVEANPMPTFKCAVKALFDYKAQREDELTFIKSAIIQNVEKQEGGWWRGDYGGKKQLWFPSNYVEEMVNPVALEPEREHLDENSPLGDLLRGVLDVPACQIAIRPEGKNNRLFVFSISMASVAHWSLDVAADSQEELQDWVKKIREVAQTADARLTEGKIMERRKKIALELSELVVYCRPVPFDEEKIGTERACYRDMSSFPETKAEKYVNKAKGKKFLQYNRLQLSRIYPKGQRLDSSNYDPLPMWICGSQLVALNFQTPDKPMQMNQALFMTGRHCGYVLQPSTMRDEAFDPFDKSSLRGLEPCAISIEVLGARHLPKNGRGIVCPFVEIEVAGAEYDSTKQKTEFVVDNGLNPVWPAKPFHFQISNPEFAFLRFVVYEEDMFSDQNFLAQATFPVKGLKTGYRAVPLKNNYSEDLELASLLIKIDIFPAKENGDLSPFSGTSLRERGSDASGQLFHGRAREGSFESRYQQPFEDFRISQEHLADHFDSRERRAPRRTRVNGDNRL

[21] = target: T3, Cysteine protease ATG4B (Homo sapiens, UniProt Q9Y4P1); assay type: functional;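 further: Fluorescence-based dose-response confirmation assay measuring inhibition of ATG4B activity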
T3 sequence (Q9Y4P1 whole entry): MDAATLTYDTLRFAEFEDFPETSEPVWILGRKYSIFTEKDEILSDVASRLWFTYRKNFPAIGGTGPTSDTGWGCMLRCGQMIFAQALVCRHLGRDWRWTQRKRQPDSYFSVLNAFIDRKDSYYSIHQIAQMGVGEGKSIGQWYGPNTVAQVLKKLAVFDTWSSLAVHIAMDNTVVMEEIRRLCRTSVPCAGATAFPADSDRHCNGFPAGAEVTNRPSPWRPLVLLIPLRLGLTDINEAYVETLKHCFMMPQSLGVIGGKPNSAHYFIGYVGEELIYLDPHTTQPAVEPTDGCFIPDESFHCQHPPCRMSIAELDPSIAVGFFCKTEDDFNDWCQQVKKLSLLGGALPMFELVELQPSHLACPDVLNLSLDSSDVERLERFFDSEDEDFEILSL

SUMO-activating enzyme, sequence (Q9UBE0 whole entry): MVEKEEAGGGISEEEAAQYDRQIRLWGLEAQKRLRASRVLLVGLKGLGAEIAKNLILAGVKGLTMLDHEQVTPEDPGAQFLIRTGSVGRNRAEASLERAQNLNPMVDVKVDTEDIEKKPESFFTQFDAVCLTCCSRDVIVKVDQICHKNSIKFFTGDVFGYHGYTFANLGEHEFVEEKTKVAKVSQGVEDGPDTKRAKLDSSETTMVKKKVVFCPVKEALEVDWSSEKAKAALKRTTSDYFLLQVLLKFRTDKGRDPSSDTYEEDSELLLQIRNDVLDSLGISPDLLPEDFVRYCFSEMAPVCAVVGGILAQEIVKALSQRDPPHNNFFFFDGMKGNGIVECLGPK
SUMO-activating enzyme, sequence (Q9UBT2 whole entry): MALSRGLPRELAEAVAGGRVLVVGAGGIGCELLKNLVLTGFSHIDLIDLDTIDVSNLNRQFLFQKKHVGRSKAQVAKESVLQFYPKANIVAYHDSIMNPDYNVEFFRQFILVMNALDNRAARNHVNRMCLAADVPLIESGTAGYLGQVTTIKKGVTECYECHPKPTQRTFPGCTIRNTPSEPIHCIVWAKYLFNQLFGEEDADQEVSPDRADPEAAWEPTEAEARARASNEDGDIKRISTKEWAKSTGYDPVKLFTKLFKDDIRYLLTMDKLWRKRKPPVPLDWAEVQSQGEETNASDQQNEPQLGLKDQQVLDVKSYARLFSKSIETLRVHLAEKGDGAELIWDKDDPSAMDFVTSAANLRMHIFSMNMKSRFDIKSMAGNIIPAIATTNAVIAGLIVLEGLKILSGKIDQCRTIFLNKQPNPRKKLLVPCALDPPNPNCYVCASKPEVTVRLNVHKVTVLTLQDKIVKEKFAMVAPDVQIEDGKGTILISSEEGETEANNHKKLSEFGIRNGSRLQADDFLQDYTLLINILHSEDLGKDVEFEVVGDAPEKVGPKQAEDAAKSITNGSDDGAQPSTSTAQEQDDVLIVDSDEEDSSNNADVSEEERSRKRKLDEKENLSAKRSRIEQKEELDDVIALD

IC50 [1]: 0.89 µM (active)
Compound: CCCCn1c(NC(=O)c2ccccc2Cl)c(C#N)c2nc3ccccc3nc21

Compound: O=C1C=C(N(CCO)Cc2ccccc2)c2ccccc2C1=O
EC50 [2]: > 100 µM (active)
AC50 [3]: 37.8 µM (active)

Compound: O=C1c2cc(F)ccc2-n2c1nc1ccccc1c2=O
EC50 [4]: 10 µM (inconclusive)
EC50 [5]: 8.84 µM (active)

Compound: CCOC(=O)C1=C(c2ccc(OC)cc2)C(=O)c2ccccc2C1=O
IC50 [6]: 42.4 µM (active)

Compound: CCC(=O)OCCNc1cc(Sc2nccn2C)c2nonc2c1[N+](=O)[O-]
EC50 [7]: > 32 µM (inactive)
AC50 [8]: 7.53 µM (active)
IC50 [9]: 2.38 µM (active)
AC50 [10]: 16.1 µM (active)
IC50 [11]: 8.31 µM (active)
EC50 [12]: > 31.5 µM (inactive)

Compound: O=C1C(=O)c2ccccc2-c2ccccc21 [9,10-PHENANTHRENEQUINONE]
AC50 [13]: 3.1 µM (active)
AC50 [14]: 3.04 µM (active)
IC50 [15]: 12.3 µM (inactive)
IC50 [16]: 2.03 µM (active)
IC50 [17]: 16 µM (inactive)
IC50 [18]: 6.44 µM (active)
AC50 [19]: 1.93 µM (active)
IC50 [20]: 6.37 µM (active)
IC50 [21]: 1.25 µM (active)
